Results: patent US20210207099A1, “METHODS AND COMPOSITIONS FOR GENERATING CELLS OF ENDODERMAL LINEAGE AND BETA CELLS AND USES THEREOF” (priority 2018, published 2021)

Assays:
Format in all cases: cell-based, human
[1] = system: HUES8 cells differentiated with the planar protocol; assay: Latrunculin A in the completely planar SC-β cell differentiation protocol
Method: Planar protocol: 24 hours after passaging, cells seeded onto 6 or 24-well plates at 0.313-0.521×10^6 cells/cm^2 were differentiated with a new 6 stage protocol using the following formulations, with media changes every day. Stage 1 (4 days): BE1 media+100 ng/mL Activin A+3 μM CHIR99021 for the first 24 hours, followed with 3 days of BE1 containing 100 ng/mL Activin A only. Stage 2 (2 days): BE2 media+50 ng/mL KGF. Stage 3 (2 days): BE3+50 ng/mL KGF, 200 nM LDN193189, 500 nM TPPB (Tocris, 53431), 2 μM retinoic acid, and 0.25 μM SANT1. Stage 4 (4 days): BE3+50 ng/mL KGF, 200 nM LDN193189, 500 nM TPPB, 0.1 μM retinoic acid, and 0.25 μM SANT1. Stage 5 (7 days): S5 media+10 μM ALK5i II+20 ng/mL Betacellulin+0.1 μM retinoic acid+0.25 μM SANT1+1 μM T3+1 μM XXI. 1 μM Latrunculin A was added to this media for the first 24 hours only. Stage 6 (7-25 days): Cultures were kept on the plate with ESFM for the first 7 days. To move to suspension culture, cells could be single cell dispersed with TrypLE and placed in 6 mL ESFM within a 6-well plate at a concentration of 4-5 million cells/well on an orbital shaker at 100 RPM. Assessments were performed 5-8 days after cluster aggregation.
Cells were single-cell dispersed with TrypLE and fixed with 4% PFA for 30 minutes. Cells were then washed with PBS and incubated with ICC solution for 45 minutes at room temperature, incubated with primary antibodies overnight at 4° C., and incubated with secondary antibodies for 2 hours at room temperature. […]

[2] = system: plated cells of the SC-β cell protocol; assay: Bulk RNA sequencing at stage 6 of plated cells treated with latrunculin A
Method: Cells generated with the suspension protocol were single-cell dispersed from clusters with TrypLE at the end of stage 3 and seeded onto collagen 1 coated 24-well plates at 0.625×10^6 cells/cm^2. Either 0.5 μM latrunculin A was added throughout the entirety of stage 4 or 1 μM latrunculin A was added for the first 24 hours of stage 5. After two weeks in stage 6, RNA was extracted with the RNeasy Mini Kit (Qiagen, 74016), including a DNase treatment (Qiagen, 79254) during extraction. Samples were delivered to Washington University in St. Louis Genome Technology Access Center for library preparation and sequencing. Samples were prepared by RNA depletion using Ribo-Zero according to library kit manufacturer's protocol, indexed, pooled, and sequenced on an Illumine HiSeq.
Differential gene expression analysis was performed using EdgeR. DGEList was used to create the count object and normalized the data using the trimmed mean M-values (TMM) method with calcNormFactors. Pairwise comparisons were performed using exactTest and used topTags to obtain differentially expressed genes and their respective log fold change (log FC) and adjusted p-value (FDR). These values were used to generate volcano plots using ggplot2. Hierarchical clustering and heatmaps were performed and generated with heatmap.2 (gplots) using log CPM calculated expression levels. […]

plated stage 4 cells = assay: qRT-PCR and immunostaining of plated stage 4 cells treated with cytoskeletal modifying compounds
From the text: For experiments investigating the effects of plating pancreatic progenitors, cells were differentiated with the suspension protocol for stages 1-3. At the end of stage 3, clusters were single cell dispersed with TrypLE and plated onto tissue culture plates coated with various ECM proteins at 0.625×10^6 cells/cm^2. Differentiation media for the remainder of this hybrid protocol were the same as for the suspension protocol with the exception that Y-27632 and Activin A were omitted on days 2-5 of stage 4. Additional compounds were added as indicated in each experiment: 1 μM latrunculin A (Cayman Chemical, 10010630), 1 μM latrunculin B (Cayman Chemical, 10010631), 1 μM cytochalasin D (MilliporeSigma, C2618), 1 μM jasplakinolide (Cayman Chemical, 11705), 10 μM blebbistatin (MilliporeSigma, 203389), 1 μM nocodazole (Cayman Chemical, 13857), 1 μM Y-15 (Cayman Chemical, 14485), 10 μM Y-27632, and 10 μM GDC-0994 (Selleckchem, S7554). A variety of ECM coatings were initially tested with this plating methodology, including collagen I (Corning, 354249), collagen IV (Corning, 354245), fibronectin (Gibco, 33016-015), vitronectin (Gibco, A14700), matrigel (Corning, 356230), gelatin (Fisher, G7-500), and laminins 111, 121, 211, 221, 411, 421, 511, and 521 (Biolamina, LNKT-0201). All subsequent experiments with this hybrid protocol were performed on collagen I.
Brightfield images were taken with a Leica DMi1 inverted light microscope, and fluorescence images were captured with a Nikon A1Rsi confocal microscope. For immunostaining, cells were fixed with 4% paraformaldehyde (PFA) at room temperature for 30 minutes. They were then blocked and permeabilized for 45 minutes at room temperature with an immunocytochemistry (ICC) solution consisting of 0.1% triton X (Acros Organics, 327371000) and 5% donkey serum (Jackson Immunoresearch, 017000-121) in PBS (Corning, 21-040-CV). Samples were then incubated with primary antibodies diluted in ICC solution overnight at 4° C., washed with ICC, incubated with secondary antibodies diluted in ICC for 2 hours at room temperature, and stained with DAPI for 15 minutes at room temperature. For histological sectioning, whole SC-β cell clusters generated with the planar protocol and mouse kidneys containing transplanted cells were fixed overnight with 4% PFA at 4° C. The in vitro clusters were also embedded in Histogel (Thermo Scientific, hg-4000-012). These samples were then paraffin-embedded and sectioned by the Division of Comparative Medicine (DCM) Research Animal Diagnostic Laboratory Core at Washington University in St. Louis. Paraffin was removed from sectioned samples with Histoclear (Thermo Scientific, C78-2-G), and antigen retrieval was carried out in a pressure cooker (Proteogenix, 2100 Retriever) with 0.05 M EDTA (Ambion, AM9261). Slides were blocked and permeabilized with ICC solution for 45 minutes, incubated with primary antibodies in ICC solution overnight at 4° C., and incubated with secondary antibodies for 2 hours at room temperature. Slides were then sealed with DAPI Fluoromount-G (SouthernBiotech, 0100-20).
RNA was extracted from either whole clusters or cells directly on the plate with the RNeasy Mini Kit (Qiagen, 74016). Samples were treated with a DNAse kit (Qiagen, 79254) during extraction. The High Capacity cDNA Reverse Transcriptase Kit (Applied Biosystems, 4368814) was used to synthesize cDNA on a thermocycler (Applied Biosystems, A37028). The PowerUp SYBR Green Master Mix (Applied Biosystems, A25741) was used on a StepOnePlus (Applied Biosystems), and real time PCR results were analyzed using a ΔΔCt methodology. TBP and GUSB were both used as housekeeping genes. Primer sequences were as follows.

[3] = 1 μM for the first 24 hours of stage 5

SMILES: C/C1=C/C(=O)O[C@@H]2C[C@@H](CC[C@H](C)/C=C\C=C\CC1)O[C@@](O)([C@@H]1CSC(=O)N1)C2 [latrunculin A]
- endocrine induction, SC-β cell specification and off-target lineages [1, 3]: greatly increased endocrine induction and SC-β cell specification while decreasing off-target lineages
- NKX6-1 expression ([1]; added during stage 4 (0.5 μM)): decreasing NKX6-1 expression
- premature expression of NEUROG3 and its downstream targets ([1]; added during stage 4 (0.5 μM)): dramatically increased premature expression of NEUROG3
- gene expression profile at stage 6 ([2]; 0.5 μM throughout stage 4): increasing intestine and stomach gene expression
- gene expression profile at stage 6 [2, 3]: increasing expression of β cell and islet genes
- NEUROG3+ and NKX6-1+ cells by immunostaining (plated stage 4 cells; 1 μM, plated cells at the end of stage 4): increases NEUROG3+ and decreases NKX6-1+ cells
- dose response of NEUROG3 expression (plated stage 4 cells; added during stage 4, qRT-PCR): highly dose-dependent
- expression of NEUROG3 and downstream targets NKX2.2 and NEUROD1 (plated stage 4 cells; compound screen, plated stage 4 cells, qRT-PCR): greatly increased expression of NEUROG3
- NKX6-1 expression (plated stage 4 cells; latrunculin treatment during stage 4): followed the reverse trend as NEUROG3
